{"source": "patent US20030215959A1", "about": "“Method of screening binding of a compound to a receptor” (priority 2002, published 2003)", "key": {"[1]": {"system": "non-NMDA glutamate receptors in mouse cortical cells", "experiment": "CNQX displacement assay with homogenized mouse cortical cells, visible difference absorption spectra", "type": "binding", "details": "homogenized mouse cortical cells with CNQX in PBS pH 7.4; test compound 100 μM; 310 nm to 450 nm; FIG. 2 traces A-B", "description": "Cortical neuronal cultures: Mixed cortical cell cultures containing both neurons and astrocytes were prepared from fetal mice (15-16 day gestation) as described by Asrari and Lobner (14). Briefly, dissociated cortical cells were plated on a preexisting astrocyte monolayer in a 24-well plate (a plating density of ˜2.5×10^5 cells per well). The plating medium was Eagle's minimal essential medium (MEM) (Earle's salts, supplied glutamine-free) supplemented with 5% fetal bovine serum, 5% horse serum, 2 mM glutamine and 20 mM glucose. Non-neuronal cell division was halted at 3-5 days in vitro by 3-day exposure to […] cytosine arabinoside. Cultures were maintained in humidified 5% CO2 incubators at 37° C. and were used for experiments at 14-16 days in vitro.\nAbsorption measurements: The UV-visible absorption spectra were obtained using Agilent 8453 or Shimadzu UV 2501 spectrometers. The spectra were recorded in the 310 nm to 450 nm range, at a spectral resolution of 2 nm, using a 1 cm quartz cuvette as the sample holder. […]\nDissociated mouse cortical cells were obtained as outlined in the Materials and Methods section. […] CNQX was added to the cells such that the final absorption of the sample in the 310 nm to 450 nm range was less than 1 absorbance unit. […]"}, "[2]": {"target": "T1, GluR2-S1S2 (ligand-binding domain of the GluR2 subunit of the glutamate receptor) (Rattus norvegicus, UniProt P19491)", "T1 construct": "made in house", "T1 sequence (P19491 411-527)": "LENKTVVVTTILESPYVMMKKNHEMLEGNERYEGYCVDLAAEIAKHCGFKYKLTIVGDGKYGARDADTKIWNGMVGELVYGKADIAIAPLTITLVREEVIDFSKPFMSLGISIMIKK", "T1 sequence (P19491 653-796)": "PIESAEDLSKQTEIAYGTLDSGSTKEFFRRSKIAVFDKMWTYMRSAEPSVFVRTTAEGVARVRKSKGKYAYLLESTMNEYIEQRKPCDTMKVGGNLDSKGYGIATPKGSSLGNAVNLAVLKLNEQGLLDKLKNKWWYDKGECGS", "experiment": "Quinoxaline (CNQX) displacement assay with GluR2-S1S2, visible difference absorption spectra", "details": "GluR2-S1S2 bound to 25 μM CNQX; test ligand 50 μM; phosphate buffer pH 7.4; 310 nm to 450 nm; FIG. 1 traces B-E", "from_the_text": "To begin, a baseline or control spectrum of the free quinoxaline derivative in buffer solution is generated. A second spectrum is then taken of the quinoxaline admixed with the receptor under investigation. A difference spectrum is then generated between the first spectrum (free quinoxaline) and second spectrum (protein-bound quinoxaline). The characteristic features of this difference spectrum arise due to changes in the electronic spectrum of the quinoxaline derivative bound to the protein as compared to the electronic spectrum of the free quinoxaline. Thus, the difference spectrum can be used as the control to test for compounds that compete for the same binding site as quinoxaline derivative.\nWith the difference spectrum in hand as a control, a known amount of a test agent is added to a test well containing the receptor protein and the quinoxaline derivative. […] A visible spectrum is than taken of the test well. This test spectrum is then compared to the control spectrum to see if they share the same characteristic changes in the electronic character of the quinoxaline. […]"}}, "data": [{"compound": "N[C@@H](CCC(=O)O)C(=O)O", "note": "[glutamate]", "values": [{"measurement": "displacement of CNQX from the non-NMDA glutamate receptors in cortical cells (difference spectrum)", "setting": "[1]", "value": "is displaced by the addition of glutamate"}]}, {"compound": "NCCCC(=O)O", "note": "[γ-amino butyric acid]", "values": [{"measurement": "displacement of bound CNQX from the receptor protein (difference spectrum)", "setting": "[2]", "value": "does not displace CNQX from the protein"}, {"measurement": "displacement of CNQX from the non-NMDA glutamate receptors in cortical cells (difference spectrum)", "setting": "[1]", "value": "CNQX is not displaced"}]}]}
